This experiment addresses T1, EHMT2 (Homo sapiens, UniProt Q96KQ7).
T1 construct: host or cells: MDA-MB-231
T1 sequence (Q96KQ7 1-1210): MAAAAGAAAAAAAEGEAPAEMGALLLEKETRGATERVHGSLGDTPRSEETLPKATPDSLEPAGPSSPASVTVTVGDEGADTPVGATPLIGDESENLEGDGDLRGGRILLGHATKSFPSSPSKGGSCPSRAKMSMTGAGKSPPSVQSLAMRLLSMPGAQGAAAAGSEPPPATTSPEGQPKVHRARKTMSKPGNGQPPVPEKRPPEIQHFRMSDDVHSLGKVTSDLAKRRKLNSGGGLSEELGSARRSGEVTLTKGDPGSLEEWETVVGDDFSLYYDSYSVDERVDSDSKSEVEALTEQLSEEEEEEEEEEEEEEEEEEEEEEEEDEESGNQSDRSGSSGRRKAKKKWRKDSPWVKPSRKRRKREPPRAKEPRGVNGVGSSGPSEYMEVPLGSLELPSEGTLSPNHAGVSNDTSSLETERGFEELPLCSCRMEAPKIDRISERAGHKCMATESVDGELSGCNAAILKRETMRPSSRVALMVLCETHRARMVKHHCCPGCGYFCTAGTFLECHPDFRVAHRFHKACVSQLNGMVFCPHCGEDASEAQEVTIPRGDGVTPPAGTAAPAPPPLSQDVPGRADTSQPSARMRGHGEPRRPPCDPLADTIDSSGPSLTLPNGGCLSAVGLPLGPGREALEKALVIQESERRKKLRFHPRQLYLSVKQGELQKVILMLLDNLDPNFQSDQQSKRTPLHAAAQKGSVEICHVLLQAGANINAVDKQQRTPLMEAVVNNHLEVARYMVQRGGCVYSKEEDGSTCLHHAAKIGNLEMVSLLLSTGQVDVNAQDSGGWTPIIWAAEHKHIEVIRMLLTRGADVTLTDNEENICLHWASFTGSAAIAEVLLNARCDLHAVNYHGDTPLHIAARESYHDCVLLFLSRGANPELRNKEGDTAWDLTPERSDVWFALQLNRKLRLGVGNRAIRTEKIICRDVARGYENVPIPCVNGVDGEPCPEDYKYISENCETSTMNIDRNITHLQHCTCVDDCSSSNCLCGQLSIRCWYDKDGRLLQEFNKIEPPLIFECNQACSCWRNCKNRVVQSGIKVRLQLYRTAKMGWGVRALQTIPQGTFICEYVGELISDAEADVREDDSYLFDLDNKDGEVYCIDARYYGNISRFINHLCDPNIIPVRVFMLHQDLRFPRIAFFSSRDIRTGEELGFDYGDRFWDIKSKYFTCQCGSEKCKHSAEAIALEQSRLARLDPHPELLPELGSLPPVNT
In words: MDA-MB-231 H3K9me2 in-cell Western assay (EHMT2 ICW). It is filed as cell-based. Particulars: H3K9me2 in-cell Western, MDA-MB-231 cells; read-out: EHMT2 ICW (IC50 μM). The procedure, abridged:
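Cellular dimethyl-H3K9 is quantified by in-cell Western in MDA-MB-231 cells treated with compound for 48 h. The H3K9me2 signal at 800 nm is normalised to DRAQ5 nuclear stain at 700 nm. IC50 is calculated from triplicate concentration points by nonlinear regression.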

The term IC50 denotes the concentration that inhibits the measured activity by half. On to `COc1ncc(Nc2nc(C)cc(NC(C)C)n2)cc1OCCCN1CCCC1` [Compound 593], for which the IC50 was 0.1 to 1 µM.
To `COc1cc(Nc2nc(C)cc3[nH]ncc23)ncc1OCCCN1CCCC1` [Compound 565] belongs 1 to 10 µM; to `CCN1CC[C@@H](COc2cc(Nc3nc(C)cc(NC)n3)ccc2OC)C1` [Compound 571], 0.1 to 1 µM; to `CCCC1(Nc2nccc(NC)n2)CCNCC1` [Compound 545], over 10 µM.
To `COc1cnc(Nc2cccc3[nH]ncc23)cc1OCCCN1CCCC1` [Compound 581] belongs over 10 µM.
With `CNc1ccnc(Nc2cc(OCCCN3CCCC3)c3[nH]ncc3c2)n1` [Compound 539], the half-maximal inhibitory concentration (IC50) was over 10 µM.
`COc1ccc(Nc2nc(C)cc(NC(C)C)n2)cc1OCCCN1CCCC1` [Compound 603]: the IC50 was 0.1 to 1 µM.
Turning to `COc1ccc(NC2CCCNC2)cc1OCCCN1CCCC1` (stereo not shown) [Compound 573], the IC50 is over 10 µM.
In the case of `C/C=C/C(=O)Nc1cc(OCCCN2CCCC2)c(OC)cn1` [Compound 597] it was over 10 µM; in that of `CNc1cc(C)nc(Nc2ccc(OC)c(OC[C@@H]3CCN(C4(C)CC4)C3)c2)n1` [Compound 568], 0.1 to 1 µM; in that of `CCN1CC(COc2cc(Nc3cc(NC)nc(C)c3F)ncc2OC)C1` [Compound 567], over 10 µM.
To `COc1ncc(Nc2nc(C)cc(NCC3CCOCC3)n2)cc1OCCCN1CCCC1` [Compound 591] belongs 0.1 to 1 µM; to `CNc1ccnc(NC2(C)CCNCC2)n1` [Compound 547, N^4-methyl-N^2-(4-methylpiperidin-4-yl)pyrimidine-2,4-diamine], over 10 µM; to `COc1cc(NC2CCNCC2)ccc1OCCCN1CCCC1` [Compound 579], over 10 µM.
`CCN1CC[C@@H](COc2cc(Nc3nc(C)cc(NC)n3)cnc2OC)C1` [Compound 599]: the IC50 fell in the range of 0.1 to 1 µM.
To `CCN1CC(C(C#N)Oc2cc(Nc3nc(C)cc(NC)n3)ccc2OC)C1` (stereo not shown) [Compound 562] belongs 1 to 10 µM; to `CCCCN1CCC(C)(Nc2nccc(NC)n2)CC1` [Compound 550, N^2-(1-butyl-4-methylpiperidin-4-yl)-N^4-methylpyrimidine-2,4-diamine], over 10 µM; to `CCN1CC(C(O)Oc2cc(Nc3nc(C)cc(NC)n3)ccc2OC)C1` (stereo not shown) [Compound 560], 0.1 to 1 µM.
In the case of `CNc1cc(C)nc(Nc2ccc(OC)c(OCC3CN(C4CCCC4)C3)c2)n1` [Compound 577] it was over 10 µM; in that of `CNc1cc(C)nc(Nc2cnc(OC)c(OC[C@H]3CCN(C4CC4)C3)c2)n1` [Compound 558], 0.1 to 1 µM; in that of `COc1cnc(Nc2cc(C)nc3[nH]ncc23)cc1OCCCN1CCCC1` [Compound 596], over 10 µM.
For `CNc1cc(C)nc(Nc2ccc(OC)c(OC[C@@H]3CCNC3)c2)n1` [Compound 600], the IC50 was under 0.1 µM.
To `CNc1cc(C)nc(Nc2ccc(OC)c(O)c2)n1` [Compound 561] belongs over 10 µM.
In the case of `COc1ccc(Nc2nc(C)cc(NCC3CCOCC3)n2)cc1OCCCN1CCCC1` [Compound 590], the IC50 was in the range of 0.1 to 1 µM.
To `C/C=C/C(=O)Nc1ccc(OC)c(OCCCN2CCCC2)c1` [Compound 598] belongs over 10 µM; to `CCCC1(Nc2nccc(NC)n2)CCCNC1` (stereo not shown) [Compound 544], over 10 µM.
On to `CNc1cc(C)nc(Nc2ccc(OC)c(OCC3CN(C(C)C)C3)c2)n1` [Compound 575], for which the IC50 was 1 to 10 µM.
In the case of `COc1ncc(Nc2nc(C)cc(NCC3CCOCC3)n2)cc1OC[C@@H]1CCN(C2CCC2)C1` [Compound 594] it was 0.1 to 1 µM; in that of `COc1cc2c(C3CCN(C)CC3)nc(N(C)C)nc2cc1OCCCN1CCCC1` [Compound 587], 0.1 to 1 µM; in that of `CNc1ccnc(NC2CCCNC2)n1` (stereo not shown) [Compound 541, N^4-methyl-N^2-(piperidin-3-yl)pyrimidine-2,4-diamine], over 10 µM.
As to `CCN1CC(COc2cc(Nc3cc(NC)ncc3F)ncc2OC)C1` [Compound 566], the IC50 was over 10 µM.
To `c1nc(NC2CCNCC2)ncc1OCCCN1CCCC1` [Compound 552] belongs over 10 µM.
To `CNc1ccnc(N[C@@H]2CC[C@H](N)C2)n1` [Compound 548, N^2-((1R,3S)-3-aminocyclopentyl)-N^4-methylpyrimidine-2,4-diamine] belongs over 10 µM; to `CNc1cc(C)nc(Nc2ccc(OC)c(OCC3CN(C4CCC4)C3)c2)n1` [Compound 576], 0.1 to 1 µM.
